Test results as given in patent US20050090453A1, “Methods of modulating IL-6” (SOLBEC PHARMACEUTICALS CO., LTD., priority 2003, published 2005).
In brackets after ≈: the same amount, converted by molar mass.

Assays:
[1] = tested on: five human malignant mesothelioma cell lines (Ju77, Lo68, No36, One58, Sty51); assay: MTT assay, five mesothelioma cell lines; type: cell-based; details: range over five mesothelioma cell lines, 72 hours, read-out: IC50 (concentration required to reduce cell viability by 50%)
From the text: (§1) A panel of five human malignant mesothelioma cell lines, established from the pleural fluid of patients with the disease. These cell lines, designed Ju77, Lo68, No36, One58 and Sty51 have been previously described (1). None of the patients from whom the cell lines were derived had been exposed to chemotherapeutic agents. Two cell lines were purchased from ATCC (Rockville, Md.) for use as controls: HT29—a human colon adenocarcinoma (ATCC HTB38) and A549—a human lung adenocarcinoma (ATCC CCL185). These cell lines are representative of tumours that are generally drug resistant but have shown some responses to newer chemotherapy agents.
(§2) Cells were maintained in RPMI-1640 containing 5% fetal calf serum (Life Technologies Inc., Melbourne), 5×10^−5 M 2-mercaptoethanol, 20 mM HEPES buffer, 100 IU benzylpenicillin/ml (CSL, Perth) and 50 μg gentamicin/ml (David Bull Laboratories, Melbourne), in water saturated air containing 5% CO2 at 37° C. This growth medium will henceforth be called RF-5. All cells were checked at 3 monthly intervals for Mycoplasma and remained negative to testing.
(§3) Drug sensitivities for each cell line were determined by use of the MTT (Sigma-Aldrich, NSW) assay modified from the method described by Mossman (2). […] Optical densities were determined using a SpectraMax 250 plate reader (Molecular Devices) at 570 nm. […]

[2] = tested on: A549 human lung adenocarcinoma; assay: MTT assay, A549; type: cell-based; details: 72 hours, read-out: IC50 (concentration required to reduce cell viability by 50%)
From the text: as §1, §2, §3

[3] = tested on: HT29 human colon adenocarcinoma; assay: MTT assay, HT29; type: cell-based; details: HT-29, 72 hours, read-out: IC50 (concentration required to reduce cell viability by 50%)
From the text: as §1, §2, §3

[4] = tested on: mesothelioma and control cells; assay: MTT assay, drug toxicity in mesothelioma and control cells; type: cell-based, human; details: all cell lines
From the text: as §1, §2, §3

[5] = tested on: IL-6; assay: IL-6 ELISA of media from treated mesothelioma and control cells; type: cell-based, human; details: for surge in IL-6 production: as the concentration of drug approached its IC50 value
Description: The IL-6 assay was performed using a human IL-6 ELISA kit (eBioscience, USA) according to the manufacturers protocol. Briefly ninety six well plates were incubated at room temperature overnight with 100 μL per well of monoclonal antihuman IL-6 antibody in coating buffer (0.1M Na2CO3/NaHCO3, pH 9.6). The plate was washed five times with PBS and then 200 μL of blocking buffer added to each well and incubated for one hour at room temperature. The plate was then washed five times in PBS with 0.005% Tween 20 (Sigma-Aldrich, NSW). 100 μL of each sample to be assayed was added to each well and also IL-6 standard solutions ranging from 0.6-400 pg/ml were used to generate a standard curve.
After a one hour incubation, the plate was washed as above and 100 μL of biotinylated-IL-6 antibody solution added for a further hour. Following further washes, 100 μL of streptavidin-HRP conjugate solution was added for 30 minutes and the plates washed. 100 μL of ABTS solution was added and following incubation for 30 minutes at 37° C., the plate was read at 405 nm on a SpectraMax 250 plate reader (Molecular Devices) and the concentration of IL-6 for each sample calculated from the standard curve.
Samples for use in the ELISA were prepared by seeding of cells in 96 well plates with or without chemotherapy as described previously. As in the previous experiments chemotherapy was added 24 hours after cell seeding. For cell lysis experiments 300 μl of distilled water was added to each well and lysis of cells was confirmed by visual inspection. Media from these assays was removed at the appropriate time and stored at −20° C. until the ELISA was performed. The concentration of IL-6 for each cell line represents the mean value generated from three separate experiments. The results from chemotherapy effects on IL-6 production are representative of two or more experiments.

[6] = tested on: NO36 mesothelioma cell line; assay: MTT assay, NO36; type: cell-based, human
From the text: as §1, §2, §3

[7] = tested on: IL-6; details: mesothelioma cells, concentrations producing a 5-30% reduction in relative cell growth; reference 3; cited from earlier work

CC(=O)O[C@@]12CO[C@@H]1C[C@H](O)[C@@]1(C)C(=O)[C@H](O)C3=C(C)[C@@H](OC(=O)[C@H](O)[C@@H](NC(=O)OC(C)(C)C)c4ccccc4)C[C@@](O)([C@@H](OC(=O)c4ccccc4)[C@H]21)C3(C)C [docetaxel, Docetaxel]
IC50 [1]: 4.7 to 7.6 ng/mL (≈ 5.82 to 9.41 nM) | IC50 [2]: 5.4 ng/mL (≈ 6.68 nM) | IC50 [3]: 2 ng/mL (≈ 2.48 nM) | shape of dose response curve [4]: plateau effect is clear for all cell lines | surge in IL-6 production [5]: a surge in IL-6 production was measured | IL-6 production compared to untreated cells ([5]; concentrations below the IC50): did not effect IL-6 production

Nc1ccn([C@@H]2O[C@H](CO)[C@@H](O)C2(F)F)c(=O)n1 [gemcitabine]
IC50 [1]: 0.8 to 5 ng/mL (≈ 3.04 to 19 nM) | IC50 [2]: 1.75 ng/mL (≈ 6.65 nM) | IC50 [3]: 6.7 ng/mL (≈ 25.5 nM) | viability at 0.01 µg/mL ([6]; Homo sapiens, NO36 cells at 10 ng/ml): 50% | concentration at which cell death reaches a plateau ([6]; NO36 cells, MTT): approximately 3 ng/ml | surge in IL-6 production [5]: a surge in IL-6 production was measured | change in IL-6 concentration relative to untreated cells [7]: decrease in the IL-6 concentration by up to one half
